Test results as given in patent US8067042B1 (Mutual Pharmaceutical Company, Inc., priority 2007, dated 2011).
Values joined by “and” are separate entries in the source; they are usually repeats but may differ in a detail not shown here. Identical values can stand only once. Like-named read-outs stand apart in the source and are kept apart here.

Key:
[1] = target: T1, Human CYP1A2 + P450 Reductase SUPERSOMES (Homo sapiens, UniProt P05177)
T1 sequence (P05177 2-516 limits assumed): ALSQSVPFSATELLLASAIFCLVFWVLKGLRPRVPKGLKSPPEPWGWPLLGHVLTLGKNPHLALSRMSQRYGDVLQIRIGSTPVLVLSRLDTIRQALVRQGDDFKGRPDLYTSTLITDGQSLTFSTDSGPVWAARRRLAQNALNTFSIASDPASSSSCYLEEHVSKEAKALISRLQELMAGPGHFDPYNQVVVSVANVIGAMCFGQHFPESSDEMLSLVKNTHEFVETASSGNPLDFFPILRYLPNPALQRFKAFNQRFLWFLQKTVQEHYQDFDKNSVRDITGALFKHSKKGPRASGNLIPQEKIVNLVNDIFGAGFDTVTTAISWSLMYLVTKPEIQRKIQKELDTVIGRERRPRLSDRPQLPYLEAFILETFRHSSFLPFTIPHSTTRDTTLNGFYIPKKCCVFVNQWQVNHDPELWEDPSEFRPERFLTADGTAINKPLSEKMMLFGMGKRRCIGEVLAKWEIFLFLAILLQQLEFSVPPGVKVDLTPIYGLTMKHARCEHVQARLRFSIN
Protocol: (§1) In this study, individual CYP isoforms expressed from human cDNA and P450 reductase cDNA were used (BD SUPERSOMES™ Enzymes, BD Biosciences Discovery Labware, Woburn, Mass.). SUPERSOMES™ are microsomes from baculovirus-infected insect cells containing singly expressed recombinant human CYP enzymes.
(§2) After a 5-minute preincubation, an appropriate amount of the appropriate buffer was added to the reaction mixtures to make the final volume of 0.5 mL. The incubations were continued for 60 minutes.
(§3) All incubation reactions were terminated by adding 0.5 mL methanol, and the samples were transferred to cryovials and stored at −70±10° C. until analysis.

[2] = target: T2, Human CYP2A6 + P450 Reductase + Cytochrome b5 SUPERSOMES (Homo sapiens, UniProt P11509)
T2 sequence (P11509 1-494): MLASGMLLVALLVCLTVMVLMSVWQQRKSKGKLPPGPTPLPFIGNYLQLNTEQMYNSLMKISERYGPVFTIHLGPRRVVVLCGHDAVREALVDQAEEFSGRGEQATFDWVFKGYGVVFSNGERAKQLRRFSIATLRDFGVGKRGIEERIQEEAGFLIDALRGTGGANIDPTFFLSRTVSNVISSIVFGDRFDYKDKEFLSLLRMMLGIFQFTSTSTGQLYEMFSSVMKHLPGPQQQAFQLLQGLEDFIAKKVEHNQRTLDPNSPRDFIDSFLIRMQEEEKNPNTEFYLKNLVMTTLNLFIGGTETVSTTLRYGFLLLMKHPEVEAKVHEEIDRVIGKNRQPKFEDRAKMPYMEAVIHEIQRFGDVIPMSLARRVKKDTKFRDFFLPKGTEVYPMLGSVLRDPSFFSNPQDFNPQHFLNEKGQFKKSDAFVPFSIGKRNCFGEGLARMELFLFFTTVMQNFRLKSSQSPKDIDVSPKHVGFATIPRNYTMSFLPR
Protocol: as §1, §2, §3

[3] = target: Human CYP2C9*1 (Arg144) + P450 Reductase + Cytochrome b5 SUPERSOMES (Homo sapiens, UniProt P11712)
Protocol: as §1, §2, §3

[4] = target: Human CYP2D6*1 + P450 Reductase SUPERSOMES (Homo sapiens, UniProt P10635)
Protocol: as §1, §2, §3

[5] = target: Human CYP2E1 + P450 Reductase + Cytochrome b5 SUPERSOMES (Homo sapiens, UniProt P05181)
Sequence of Human CYP2E1 + P450 Reductase + Cytochrome b5 SUPERSOMES (P05181 whole entry): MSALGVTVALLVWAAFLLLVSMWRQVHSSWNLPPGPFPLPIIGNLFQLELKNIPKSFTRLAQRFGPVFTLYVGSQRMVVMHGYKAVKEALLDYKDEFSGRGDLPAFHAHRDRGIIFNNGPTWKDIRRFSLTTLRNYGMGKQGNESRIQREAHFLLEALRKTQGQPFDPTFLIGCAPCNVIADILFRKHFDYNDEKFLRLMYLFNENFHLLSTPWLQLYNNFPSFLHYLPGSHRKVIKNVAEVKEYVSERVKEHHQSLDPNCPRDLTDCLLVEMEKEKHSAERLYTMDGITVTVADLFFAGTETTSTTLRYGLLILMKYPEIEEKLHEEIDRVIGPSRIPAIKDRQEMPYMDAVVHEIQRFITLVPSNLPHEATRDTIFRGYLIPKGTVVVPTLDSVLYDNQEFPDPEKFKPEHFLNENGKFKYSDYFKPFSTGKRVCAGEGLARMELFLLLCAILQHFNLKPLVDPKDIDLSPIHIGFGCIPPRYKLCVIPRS
Protocol: as §1, §2, §3

CYP2D6 = CYP2D6 (Homo sapiens, UniProt P10635)
Sequence of CYP2D6 (P10635 whole entry): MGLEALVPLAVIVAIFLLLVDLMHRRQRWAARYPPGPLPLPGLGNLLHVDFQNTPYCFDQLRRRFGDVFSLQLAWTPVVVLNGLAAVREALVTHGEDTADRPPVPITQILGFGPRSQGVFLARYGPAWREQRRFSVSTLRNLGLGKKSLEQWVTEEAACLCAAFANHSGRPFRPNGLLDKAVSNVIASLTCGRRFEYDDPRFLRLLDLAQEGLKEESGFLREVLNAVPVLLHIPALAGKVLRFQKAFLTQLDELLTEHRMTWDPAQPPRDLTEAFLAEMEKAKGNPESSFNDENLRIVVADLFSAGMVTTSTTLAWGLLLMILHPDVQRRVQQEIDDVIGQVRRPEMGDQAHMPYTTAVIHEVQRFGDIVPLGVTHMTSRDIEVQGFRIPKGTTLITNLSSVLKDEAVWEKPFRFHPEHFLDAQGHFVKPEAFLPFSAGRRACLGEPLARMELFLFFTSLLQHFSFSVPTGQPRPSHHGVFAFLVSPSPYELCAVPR
Protocol: (§4) The stock solutions were added to incubation mixtures to obtain the final concentrations of 5 and 50 μM, each containing 1% acetonitrile.
(§5) After a 5 minute preincubation, nicotinamide adenine dinucleotide phosphate (NADPH) regenerating system (NRS; 1.7 mg/mL β-NADP, 7.8 mg/mL glucose-6-phosphate, and 6 units/mL glucose-6-phosphate dehydrogenase in 2% sodium bicarbonate solution) was added to initiate the reaction. The final incubation volume was 0.5 mL. Incubations were continued for 60 minutes.
(§6) All incubations were conducted at 37±1° C. in a shaking water bath. All incubations were carried out in triplicates.
(§7) After a 5-minute preincubation, 2% sodium bicarbonate solution was added to the incubation mixtures. The final incubation volume was 0.5 mL. Incubations were continued for 60 minutes.
(§8) Incubation reactions, including the matrix controls and metabolic negative controls, were terminated by adding 0.5 mL methanol.
(§9) The samples were analyzed on a Supelcosil LC-18 column (3μ, 120 Å, 3.0×100 mm).

CYP3A4 = CYP3A4 (Homo sapiens, UniProt P08684)
Sequence of CYP3A4 (P08684 whole entry): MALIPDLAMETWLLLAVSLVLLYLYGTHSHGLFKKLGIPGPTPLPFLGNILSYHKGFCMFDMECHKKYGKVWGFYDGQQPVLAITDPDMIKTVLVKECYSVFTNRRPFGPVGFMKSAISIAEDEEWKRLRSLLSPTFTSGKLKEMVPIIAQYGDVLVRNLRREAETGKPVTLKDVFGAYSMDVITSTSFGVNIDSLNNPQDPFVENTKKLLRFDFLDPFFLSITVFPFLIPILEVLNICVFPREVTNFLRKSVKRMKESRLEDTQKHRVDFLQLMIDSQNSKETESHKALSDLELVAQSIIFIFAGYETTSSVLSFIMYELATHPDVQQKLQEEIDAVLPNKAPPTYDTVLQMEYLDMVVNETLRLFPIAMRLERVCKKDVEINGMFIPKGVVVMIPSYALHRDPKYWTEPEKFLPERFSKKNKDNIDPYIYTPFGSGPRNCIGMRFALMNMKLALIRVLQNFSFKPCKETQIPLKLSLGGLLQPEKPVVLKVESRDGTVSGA
Protocol: as §4, §5, §6, §7, §8, §9

[6] = 5 μM, 5 pmol enzyme, listed as megestrol acetate
[7] = 5 μM, 20 pmol enzyme, listed as megestrol acetate
[8] = 50 μM, 5 pmol enzyme, listed as megestrol acetate
[9] = 50 μM, 20 pmol enzyme, listed as megestrol acetate
[10] = human, microsomes, 60 min, pH 7.4

## CC(=O)O[C@]1(C(C)=O)CC[C@H]2[C@@H]3C=C(C)C4=CC(=O)CC[C@]4(C)[C@H]3CC[C@@]21C [Megestrol Acetate, 17 α-acetyloxy-6-methylpregna-4,6-diene-3,20-dione]
[1]; 5 μM, 5 pmol enzyme
  Individual Raw Data Observed: 2.044 µM and 2.183 µM and 2.216 µM
  Percent of Parent Disappearance Individual: −2.76% and −9.79% and −11.4%
  Percent of Parent Disappearance Mean ± SD: −7.99 ± 4.60%
[1]; [6]
  Percent of Parent Disappearance Mean ± SD: no disappearance of the substrate was detected
[1]; 5 μM, 20 pmol enzyme
  Individual Raw Data Observed: 2.309 µM and 2.295 µM and 2.254 µM
  Percent of Parent Disappearance Individual: 5.51% and 6.07% and 7.78%
  Percent of Parent Disappearance Mean ± SD: 6.45 ± 1.18%
[1]; [7]
  Percent of Parent Disappearance Mean ± SD: 6.45±1.18%
[1]; 50 μM, 5 pmol enzyme
  Individual Raw Data Observed: 20.03 μM (2×) and 19.46 μM
  Percent of Parent Disappearance Individual: −5.05% and −5.02% and −2.05%
  Percent of Parent Disappearance Mean ± SD: −4.04 ± 1.72%
[1]; [8]
  Percent of Parent Disappearance Mean ± SD: no disappearance of the substrate was detected
[1]; 50 μM, 20 pmol enzyme
  Individual Raw Data Observed: 19.6 µM and 20.86 µM and 20.65 µM
  Percent of Parent Disappearance Individual: 11.0% and 5.29% and 6.24%
  Percent of Parent Disappearance Mean ± SD: 7.51 ± 3.06%
[1]; [9]
  Percent of Parent Disappearance Mean ± SD: 7.51±3.06%
[2]; 5 μM, 5 pmol enzyme
  Individual Raw Data Observed: 2.313 µM and 2.35 µM and 2.527 µM
  Percent of Parent Disappearance Individual: 3.96% and 2.43% and −4.94%
  Percent of Parent Disappearance Mean ± SD: 0.486 ± 4.76%
[2]; [6]
  Percent of Parent Disappearance Mean ± SD: 0.486±4.76%
[2]; 5 μM, 20 pmol enzyme
  Individual Raw Data Observed: 2.456 µM and 2.487 µM and 2.684 µM
  Percent of Parent Disappearance Individual: 1.36% and 0.129% and −7.81%
  Percent of Parent Disappearance Mean ± SD: −2.11 ± 4.98%
[2]; [7]
  Percent of Parent Disappearance Mean ± SD: 2.11±4.98%
[2]; 50 μM, 5 pmol enzyme
  Individual Raw Data Observed: 24.75 µM and 23.3 µM and 23.45 µM
  Percent of Parent Disappearance Individual: −5.02% and 1.11% and 0.484%
  Percent of Parent Disappearance Mean ± SD: −1.14 ± 3.38%
[2]; [8]
  Percent of Parent Disappearance Mean ± SD: 1.14±3.38%
[2]; 50 μM, 20 pmol enzyme
  Individual Raw Data Observed: 21.74 µM and 22.68 µM and 23.15 µM
  Percent of Parent Disappearance Individual: 4.54% and 0.420% and −1.66%
  Percent of Parent Disappearance Mean ± SD: 1.10 ± 3.16%
[2]; [9]
  Percent of Parent Disappearance Mean ± SD: 1.10±3.16%
[3]; 5 μM, 5 pmol enzyme
  Individual Raw Data Observed: 2.098 µM and 2.127 µM and 2.133 µM
  Percent of Parent Disappearance Individual: 3.68% and 2.33% and 2.08%
  Percent of Parent Disappearance Mean ± SD: 2.70 ± 0.860%
[3]; [6]
  Percent of Parent Disappearance Mean ± SD: 2.70±0.860%
[3]; 5 μM, 20 pmol enzyme
  Individual Raw Data Observed: 2.314 µM and 2.379 µM and 2.134 µM
  Percent of Parent Disappearance Individual: 9.53% and 6.99% and 16.6%
  Percent of Parent Disappearance Mean ± SD: 11.0 ± 4.96%
[3]; [7]
  Percent of Parent Disappearance Mean ± SD: 11.0±4.96%
[3]; 50 μM, 5 pmol enzyme
  Individual Raw Data Observed: 20.38 µM and 20.18 µM and 20.9 µM
  Percent of Parent Disappearance Individual: 21.5% and 22.2% and 19.5%
  Percent of Parent Disappearance Mean ± SD: 21.0 ± 1.43%
[3]; [8]
  Percent of Parent Disappearance Mean ± SD: 21.0±1.43%
[3]; 50 μM, 20 pmol enzyme
  Individual Raw Data Observed: 24.33 µM and 21.36 µM and 25.28 µM
  Percent of Parent Disappearance Individual: −1.60% and 10.8% and −5.60%
  Percent of Parent Disappearance Mean ± SD: 1.19 ± 8.54%
[3]; [9]
  Percent of Parent Disappearance Mean ± SD: 1.19±8.54%
[4]; 5 μM, 5 pmol enzyme
  Individual Raw Data Observed: 1.94 µM and 2.747 µM and 2.056 µM
  Percent of Parent Disappearance Mean ± SD: −13.6 ± 022.0%
[4]; [6]
  Percent of Parent Disappearance Mean ± SD: no substrate disappearance was detected
[4]; 5 μM, 20 pmol enzyme
  Individual Raw Data Observed: 2.325 µM and 2.386 µM and 2.39 µM
  Percent of Parent Disappearance Individual: 4.68% and 2.15% and 2.01%
  Percent of Parent Disappearance Mean ± SD: 2.95 ± 1.50%
[4]; [7]
  Percent of Parent Disappearance Mean ± SD: 2.95±2.46%
[4]; 50 μM, 5 pmol enzyme
  Individual Raw Data Observed: 18.2 µM and 22.44 µM and 18.03 µM
  Percent of Parent Disappearance Individual: −3.00% and −27.0% and −2.03%
[4]; [8]
  Percent of Parent Disappearance Mean ± SD: no substrate disappearance was detected
[4]; 50 μM, 20 pmol enzyme
  Individual Raw Data Observed: 12.44 µM and 13.43 µM and 12.62 µM
  Percent of Parent Disappearance Individual: 1.88% and −5.91% and 0.449%
  Percent of Parent Disappearance Mean ± SD: −1.19 ± 04.14%
[4]; [9]
  Percent of Parent Disappearance Mean ± SD: no substrate disappearance was detected
[5]; 5 μM, 5 pmol enzyme
  Individual Raw Data Observed: 2.008 µM and 2.126 µM and 2.034 µM
  Percent of Parent Disappearance Individual: 20.4% and 15.8% and 19.4%
  Percent of Parent Disappearance Mean ± SD: 18.5 ± 02.46%
[5]; [6]
  Percent of Parent Disappearance Mean ± SD: 18.5±2.46%
[5]; 5 μM, 20 pmol enzyme
  Individual Raw Data Observed: 1.473 µM and 1.491 µM and 1.693 µM
  Percent of Parent Disappearance Individual: −1.62% and −2.86% and −16.8%
  Percent of Parent Disappearance Mean ± SD: −7.09 ± 8.42%
[5]; [7]
  Percent of Parent Disappearance Mean ± SD: 7.09±8.42%
[5]; 50 μM, 5 pmol enzyme
  Individual Raw Data Observed: 21.97 µM and 17.04 µM and 17.99 µM
  Percent of Parent Disappearance Mean ± SD: −10.5 ± 15.2%
[5]; [8]
  Percent of Parent Disappearance Mean ± SD: 10.5±15.2%
[5]; 50 μM, 20 pmol enzyme
  Individual Raw Data Observed: 21.04 µM and 21.41 µM and 21.74 µM
  Percent of Parent Disappearance Individual: −1.09% and −2.83% and −4.46%
  Percent of Parent Disappearance Mean ± SD: −2.79 ± 1.69%
[5]; [9]
  Percent of Parent Disappearance Mean ± SD: 2.79±1.69%
CYP2D6
  percent metabolized in presence vs absence of inhibitor (unpaired two-tailed t-test): not different from the percentage of megestrol acetate metabolized in the absence of the inhibitor
CYP2D6; [10]
  metabolized in pooled human liver microsomes: > 20%
CYP3A4
  percent metabolized in presence vs absence of inhibitor (unpaired two-tailed t-test): less than that of the percentage of megestrol acetate metabolized in the absence of the inhibitor
CYP3A4; [10]
  metabolized in pooled human liver microsomes: > 20%
